Assay results from ChEMBL document CHEMBL1201862, “PubChem BioAssay data set” (2004).
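1) Cells in 96-well plates. 2) Compound, 48 h, 5 concentrations. 3) Linear interpolation between surrounding doses. 4) Unreached endpoint = highest concentration. GI50 marks 50% less growth.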 Activity calls are given as the source filed them. Cut-off read from the data, not from the text of the source: active = GI50 up to about 1.1 µM and inactive = higher.

Tests used:
Experiment in all cases: growth of human tumour cells (NCI), 48 h
A549 = tested on: A549
CAKI-1 = tested on: CAKI-1
EKVX = tested on: EKVX
HCC 2998 = tested on: HCC 2998
HL-60 = tested on: HL-60
HT-29 = tested on: HT-29
K562 = tested on: K562
NCI-H522 = tested on: NCI-H522
NCI/ADR-RES = tested on: NCI/ADR-RES
OVCAR-4 = tested on: OVCAR-4
OVCAR-5 = tested on: OVCAR-5
RXF 393 = tested on: RXF 393
SF-295 = tested on: SF-295
SK-MEL-28 = tested on: SK-MEL-28
SN12C = tested on: SN12C
SNB-75 = tested on: SNB-75
SW-620 = tested on: SW-620
TK-10 = tested on: TK-10
U-251 = tested on: U-251
UACC-62 = tested on: UACC-62

Structure (SMILES)	GI50 (A549)	GI50 (CAKI-1)	GI50 (EKVX)	GI50 (HCC 2998)	GI50 (HL-60)	GI50 (HT-29)	GI50 (K562)	GI50 (NCI-H522)	GI50 (NCI/ADR-RES)	GI50 (OVCAR-4)	GI50 (OVCAR-5)	GI50 (RXF 393)	GI50 (SF-295)	GI50 (SK-MEL-28)	GI50 (SN12C)	GI50 (SNB-75)	GI50 (SW-620)	GI50 (TK-10)	GI50 (U-251)	GI50 (UACC-62)
CC(C)NC(=O)CN1CCN(C2=C(Cl)C(=O)c3c(O)ccc(O)c3C2=O)CC1	8.13 µM (inactive)	2.17 µM (inactive)	3.72 µM (inactive)	2.92 µM (inactive)	0.187 µM (active)	1.26 µM (inactive)	0.341 µM (active)	1.9 µM (inactive)	2.38 µM (inactive)	1.71 µM (inactive)	2.92 µM (inactive)	1.54 µM (inactive)	7.1 µM (inactive)	1.66 µM (inactive)	1.68 µM (inactive)	3.46 µM (inactive)	0.546 µM (active)	2.07 µM (inactive)	3.31 µM (inactive)	1.73 µM (inactive)
NC(CCCCCCCCCCP(=O)(O)O)C(=O)O (centres undefined)	> 100 µM (inactive)	4.23 µM (inactive)	> 100 µM (inactive)	> 100 µM (inactive)	> 100 µM (inactive)	> 100 µM (inactive)	> 100 µM (inactive)	85.5 µM (inactive)	> 100 µM (inactive)	> 100 µM (inactive)	> 100 µM (inactive)	> 100 µM (inactive)	> 100 µM (inactive)	> 100 µM (inactive)	> 100 µM (inactive)	7.73 µM (inactive)	> 100 µM (inactive)	> 100 µM (inactive)	> 100 µM (inactive)	> 100 µM (inactive)
CCOC(=O)Cn1c(=O)c2cc(C)cc3c(Cl)nc4c(OC)c(OC)cc1c4c32	> 100 µM (inactive)	> 100 µM (inactive)	> 100 µM (inactive)	> 100 µM (inactive)	> 100 µM (inactive)	> 100 µM (inactive)	> 100 µM (inactive)	> 100 µM (inactive)	> 100 µM (inactive)	> 100 µM (inactive)	> 100 µM (inactive)	51.1 µM (inactive)	> 100 µM (inactive)	> 100 µM (inactive)		30.8 µM (inactive)	> 100 µM (inactive)	> 100 µM (inactive)	> 100 µM (inactive)	> 100 µM (inactive)
CC1CCC2N(C1)CC1C3(O)CC45OC6(O)C(O)CCC4(C)C6CCC5C3(O)CC(O)C1(O)C2(C)O (centres undefined)	> 100 µM (inactive)	> 100 µM (inactive)	> 100 µM (inactive)	> 100 µM (inactive)	> 100 µM (inactive)	> 100 µM (inactive)	> 100 µM (inactive)	> 100 µM (inactive)	> 100 µM (inactive)	> 100 µM (inactive)	> 100 µM (inactive)	> 100 µM (inactive)	> 100 µM (inactive)	> 100 µM (inactive)	> 100 µM (inactive)	> 100 µM (inactive)	> 100 µM (inactive)	> 100 µM (inactive)	> 100 µM (inactive)	> 100 µM (inactive)
COC(=O)c1ccccc1/N=C(/NC1CCCCCC1)NS(=O)(=O)c1ccc(C)cc1	> 100 µM (inactive)	74.5 µM (inactive)	> 100 µM (inactive)	> 100 µM (inactive)	96.2 µM (inactive)	> 100 µM (inactive)	> 100 µM (inactive)	77.4 µM (inactive)	> 100 µM (inactive)	> 100 µM (inactive)	> 100 µM (inactive)	> 100 µM (inactive)	26.4 µM (inactive)	> 100 µM (inactive)	> 100 µM (inactive)	> 100 µM (inactive)	> 100 µM (inactive)	> 100 µM (inactive)	> 100 µM (inactive)	> 100 µM (inactive)
